Columns and labels:
Schistosoma mansoni = test: Schistosomicidal activity in infected mice (reduction in number of worms, single peroral treatment); type: in vivo, Schistosoma mansoni (Liberia strain) in albino mice; conditions: po, read-out: VD50 (vermicidal dosage which brings about a 50 percent reduction in the number of worms)
Method: Albino mice weighing 15-18 g are infected subcutaneously with 60±5 cercaria of a Liberia strain of Schistosoma mansoni. Forty-six (46) days after infection, the animals are treated once perorally with the test substance. There are 5-10 animals used per substance and dosage. There are 10 untreated animals used as controls. The autopsies are carried out after 60 days. Whereupon worm pairs and individual worms in the mesenteric veins, portal vein and liver are dissected out and counted.
For the evaluation, the percentage reduction in parasites in treated animals in comparison to untreated control animals is calculated. The VD50 is determined according to the Probit method. The VD50 is that vermicidal dosage which brings about a 50 percent reduction in the number of worms.
(§1) The Table which follows contains the results obtained with representative compounds of the invention. In the Table there are given VD50 in mg/kg p.o. and the LD50 in mg/kg in the case of single oral administration to mice.

[1] = Acute toxicity, single oral administration to mice; conditions: mouse, in vivo, p.o.
Source text: as §1

Cl.Cn1c2ccccc2c(=NNc2nccs2)c2ccccc21 [10-methyl-9-acridanone (2-thiazolyl)hydrazone hydrochloride]
ED50 (Schistosoma mansoni): 9 mg/kg
LD50 [1]: > 5000 mg/kg

c1ccc2c(=NN=C3NCCS3)c3ccccc3[nH]c2c1 [9-acridanone (2-thiazolidinylidene)hydrazone]
ED50 (Schistosoma mansoni): 26 mg/kg
LD50 [1]: 1250 to 2500 mg/kg
